Measured values reported in patent US5942494A, “Stimulation of gene expression and synthesis of heat shock protein 72/73 (HSP 70)” (The Trustees of Columbia University in the City of New York, priority 1996, dated 1999).
Square brackets hold non-standard residues; d marks the D form. Peptide text beside a SMILES is read from it. Nle = CCCC[C@H](N)C(=O)O

Assays:
Hsp90 = experiment: Immunoprecipitation of Hsp90 from radiolabeled HepG2 cells; format: cell-based, human; details: HepG2, ALLN 4 hours
Method: (§1) FIGS. 7A-7B: Effects of ALLN on the biosynthesis of other members of Hsp family and related proteins. HepG2 cells were pre-treated and radiolabeled with or without ALLN for 4 hours as described in FIG. 1. Cell lysates were used for SDS-PAGE (A), or for immunoprecipitation with anti-Hsp25, -Hsp27, -Hsp60, -Hsp70, -Hsp86, -Hsp90, -Hsp104, -Bip, or -albumin antibodies respectively (1 μg/ml) (B). Because the anti-Hsp25, -Hsp27, -Hsp60 and Hsp90 antibodies are from a rat source, rabbit anti-rat IgG antibody was added after the first incubation, and the incubation was extended for another 1 hour at 4° C. before collection with protein A-Sepharose.Immunoprecipitates were loaded for SDS-PAGE and aliquoted for scintillation counting and plotting. Each value was presented as mean ±S.D. from three individual culture dishes.
(§2) HepG2 cells were preincubated for 4 hours in serum-free MEM and then radiolabeled with ^3 H-Leucine (150 μCi/ml) in a serum-free, leucine-free medium. […] Cell lysates containing equal amounts of trichloroacetic acid (TCA)-insoluble radioactivity were used for immunoprecipitations by incubating with individual monoclonal antibody (1 μg/ml) for 2.5 hours at 4° C. […]

albumin = experiment: Immunoprecipitation of albumin from radiolabeled HepG2 cells; format: cell-based, human; details: HepG2, ALLN 4 hours
Method: as §1, §2

calpain = details: Rock, et al., 1994; cited from earlier work

CCCC[C@@H](C=O)NC(=O)[C@H](CC(C)C)NC(=O)[C@H](CC(C)C)NC(C)=O [ALLN, N-acetyl-leucyl-leucyl-norleucinal] (Ac-Leu-Leu-[Nle]-aldehyde)
Effect on Hsp90 (Hsp90): no effects | Effect on albumin (albumin): no effects | Activity against calpain (calpain): significant activities
